Experimental data published in paper PMC3930514, “Deletion of Ubiquitin Fold Modifier Protein Ufm1 Processing Peptidase Ufsp in L. donovani Abolishes Ufm1 Processing and Alters Pathogenesis” (PLoS Neglected Tropical Diseases, 2014).

Assays:
[1] = target: T1, LdUfsp (recombinant Ufsp, rLdUfsp) (Leishmania donovani, UniProt E9BRI1); assay: FRET cleavage assay with YFP-Ufm1-ECFP; format: biochemical; conditions: 0.1, 1, 10 µg/ml; 250 nM substrate; pH 7.5, 37 °C, 60 min
T1 construct: gene LdCL_340047700; partial ORF 427-1518 bp (about codons 143-506) in pEXP5-CT-Topo, E. coli BL21-pLysS, native purification; 43 and 39 kDa bands; L. infantum homolog is LinJ.34.3830

[2] = target: T1, LdUfsp (recombinant Ufsp, rLdUfsp); assay: biolayer interferometry (Octet, streptavidin sensor); format: binding; conditions: biotinylated protein immobilised

T1 sequence (E9BRI1 entry or part of it): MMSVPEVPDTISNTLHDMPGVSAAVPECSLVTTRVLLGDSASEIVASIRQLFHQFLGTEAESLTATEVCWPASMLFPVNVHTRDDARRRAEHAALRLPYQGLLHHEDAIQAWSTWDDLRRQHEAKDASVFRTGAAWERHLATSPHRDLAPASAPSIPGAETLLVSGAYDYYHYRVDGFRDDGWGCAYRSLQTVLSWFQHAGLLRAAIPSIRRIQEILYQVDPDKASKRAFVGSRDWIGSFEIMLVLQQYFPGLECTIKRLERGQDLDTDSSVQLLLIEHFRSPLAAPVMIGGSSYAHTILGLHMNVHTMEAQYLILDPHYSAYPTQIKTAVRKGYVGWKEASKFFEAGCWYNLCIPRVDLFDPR

Question: With `C[C@@H]1[C@H](O)[C@@H](C)/C=C/C=C/C=C/C=C/C=C/C=C/C=C/[C@H](O[C@@H]2O[C@H](C)[C@@H](O)[C@H](N)[C@@H]2O)C[C@@H]2O[C@](O)(C[C@@H](O)C[C@@H](O)[C@H](O)CC[C@@H](O)C[C@@H](O)CC(=O)O[C@H]1C)C[C@H](O)[C@H]2C(=O)O` [Amphotericin B] as the compound, how does the “% Ufm1 processing activity (Δ530, % of 20 mM N-ethyl maleimide)” value [1] read?
Answer: Its value is “Amphotericin B showed inhibitory effects on the Ufm1 processing activity”.

Question: What about the “biolayer interferometry (Octet, streptavidin sensor)” value [2] of the same compound?
Answer: The value was “Results showed that Amphotericin B can bind to the biotinylated Ufsp protein”.
